In article PMC3179844 (Chemmedchem, 2011):
Marks after values point to notes of the source that are not given here.

Columns and labels:
human 11β-HSD1 = human 11β-HSD1 (Homo sapiens, UniProt P28845); experiment: Cellular 11β-HSD1 inhibition assay; details: for inhibition at 1 µM: HEK293, read-out: Percent inhibition measured at 1 μM
mouse 11β-HSD1 = mouse 11β-HSD1 (Mus musculus, UniProt P50172); experiment: Cellular 11β-HSD1 inhibition, mouse enzyme; type: cell-based; details: mean of three measurements
[1] = Metabolism studies in human liver microsomes; type: in vitro ADME; details: for half-life: human liver microsomes, 37 °C, NADPH, 40 min, mean of two measurements
[2] = ratio of IC50 values, human 11β-HSD1

Sequence of mouse 11β-HSD1 (P50172 whole entry): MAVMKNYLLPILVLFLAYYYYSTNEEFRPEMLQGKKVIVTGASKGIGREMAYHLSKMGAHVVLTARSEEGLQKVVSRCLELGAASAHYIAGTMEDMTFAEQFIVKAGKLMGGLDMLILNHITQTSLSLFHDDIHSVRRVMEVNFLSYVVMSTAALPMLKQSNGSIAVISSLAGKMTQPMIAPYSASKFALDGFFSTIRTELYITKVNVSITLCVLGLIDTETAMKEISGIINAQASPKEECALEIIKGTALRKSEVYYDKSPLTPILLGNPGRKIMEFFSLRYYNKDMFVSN
Sequence of human 11β-HSD1 (P28845 whole entry): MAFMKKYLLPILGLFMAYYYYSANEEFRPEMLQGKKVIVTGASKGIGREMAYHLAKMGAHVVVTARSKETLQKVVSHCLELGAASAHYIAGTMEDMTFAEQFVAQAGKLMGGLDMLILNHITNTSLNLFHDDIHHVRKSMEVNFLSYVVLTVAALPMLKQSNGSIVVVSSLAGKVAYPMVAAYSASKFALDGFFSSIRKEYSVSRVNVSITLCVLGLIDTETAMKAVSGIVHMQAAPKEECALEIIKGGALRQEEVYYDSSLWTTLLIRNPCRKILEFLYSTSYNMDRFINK

6-{[2-(Adamantan-1-yl)-2-oxoethyl]sulfanyl}-N-methylpyridine-3-carboxamide [Compound 25]
Percent inhibition measured at 1 μM (human 11β-HSD1; 1 μM, HEK293/HSD11B1 cells, mean of two measurements): 73 % ^[b]

Cc1cccc(OCC(=O)C23CC4CC(CC(C4)C2)C3)n1 [Compound 6, 1-(Adamantan-1-yl)-2-[(6-methylpyridin-2-yl)oxy]ethan-1-one]
IC50 (human 11β-HSD1; IC50, human 11β-HSD1, HEK293/HSD11B1 cells): 3100 nM | melting point: 85 to 87 °C

O=C(COc1cccc(Cl)n1)C12CC3CC(CC(C3)C1)C2 [Compound 7, 1-(Adamantan-1-yl)-2-[(6-chloropyridin-2-yl)oxy]ethan-1-one]
melting point: 90 to 93 °C

O=C(COc1ccc(C(F)(F)F)cn1)C12CC3CC(CC(C3)C1)C2 [Compound 8, 1-(Adamantan-1-yl)-2-{[5-(trifluoromethyl)pyridin-2-yl]oxy}ethan-1-one]
melting point: 102 to 104 °C

O=C(COc1cncc(Cl)c1)C12CC3CC(CC(C3)C1)C2 [Compound 9, 1-(Adamantan-1-yl)-2-[(5-chloropyridin-3-yl)oxy]ethan-1-one]
melting point: 127 to 128 °C

O=C(COc1cccnc1Cl)C12CC3CC(CC(C3)C1)C2 [Compound 10, 1-(Adamantan-1-yl)-2-[(2-chloropyridin-3-yl)oxy]ethan-1-one]
melting point: 125 to 128 °C

Cc1ccc(OCC(=O)C23CC4CC(CC(C4)C2)C3)cn1 [Compound 11, 1-(Adamantan-1-yl)-2-[(6-methylpyridin-3-yl)oxy]ethan-1-one]
fold improvement in activity compared with the 2-pyridyl analogue 6 (human 11β-HSD1; [2]): 38 fold | melting point: 86 to 87 °C

O=C(COc1cccnc1)C12CC3CC(CC(C3)C1)C2 [Compound 12, 1-(Adamantan-1-yl)-2-(pyridin-3-yloxy)ethan-1-one]
melting point: 73 to 75 °C | IC50 (mouse 11β-HSD1): 160 nM

Cc1cccc(SCC(=O)C23CC4CC(CC(C4)C2)C3)n1 [Compound 14, 1-(Adamantan-1-yl)-2-[(6-methylpyridin-2-yl)sulfanyl]ethan-1-one]
inhibition at 1 µM (human 11β-HSD1): 70% | melting point: 116 to 117 °C

O=C(CSc1ccncc1)C12CC3CC(CC(C3)C1)C2 [Compound 15, 1-(Adamantan-1-yl)-2-(pyridin-4-ylsulfanyl)ethan-1-one]
melting point: 114 to 115 °C

O=C(C[S+]([O-])c1ccccn1)C12CC3CC(CC(C3)C1)C2 (stereo not drawn) [Compound 16, 1-(Adamantan-1-yl)-2-(pyridine-2-sulfinyl)ethan-1-one]
melting point: 66 to 68 °C | IC50 (mouse 11β-HSD1): 43 nM | half-life [1]: 20 min | microsomal CLint ([1]; human, liver microsomes): 31 µL/min/mg | half-life ([1]; human, liver microsomes, Half-life): 20 to 30 min

Cc1cccc([S+]([O-])CC(=O)C23CC4CC(CC(C4)C2)C3)n1 (stereo not drawn) [Compound 17, 1-(Adamantan-1-yl)-2-(6-methylpyridine-2-sulfinyl)ethan-1-one]
melting point: 75 to 76 °C | IC50 (mouse 11β-HSD1): 68 nM

O=C(CS(=O)(=O)c1ccccn1)C12CC3CC(CC(C3)C1)C2 [Compound 19, 1-(Adamantan-1-yl)-2-(pyridine-2-sulfonyl)ethan-1-one]
melting point: 129 to 131 °C

Cc1cccc(S(=O)(=O)CC(=O)C23CC4CC(CC(C4)C2)C3)n1 [Compound 20, 1-(Adamantan-1-yl)-2-(6-methylpyridine-2-sulfonyl)ethan-1-one]
melting point: 151 to 152 °C

O=C(CS(=O)(=O)c1ccncc1)C12CC3CC(CC(C3)C1)C2 [Compound 21, 1-(Adamantan-1-yl)-2-(pyridine-4-sulfonyl)ethan-1-one]
melting point: 143 to 144 °C

O=C(CSc1ccc(C(F)(F)F)cn1)C12CC3CC(CC(C3)C1)C2 [Compound 22, 1-(Adamantan-1-yl)-2-{[5-(trifluoromethyl)pyridin-2-yl]sulfanyl}ethan-1-one]
fold reduction in activity compared with the unsubstituted derivative 13 (human 11β-HSD1; [2]): 51 fold | melting point: 141 to 142 °C

O=C(O)c1ccc(SCC(=O)C23CC4CC(CC(C4)C2)C3)nc1 [Compound 23, 6-{[2-(Adamantan-1-yl)-2-oxoethyl]sulfanyl}pyridine-3-carboxylic acid]
melting point: 174 to 176 °C

NC(=O)c1ccc(SCC(=O)C23CC4CC(CC(C4)C2)C3)nc1 [Compound 24, 6-{[2-(Adamantan-1-yl)-2-oxoethyl]sulfanyl}pyridine-3-carboxamide]
melting point: 172 to 174 °C

CCNC(=O)c1ccc(SCC(=O)C23CC4CC(CC(C4)C2)C3)nc1 [Compound 26, 6-{[2-(Adamantan-1-yl)-2-oxoethyl]sulfanyl}-N-ethylpyridine-3-carboxamide]
melting point: 136 to 137 °C

CN(C)C(=O)c1ccc(SCC(=O)C23CC4CC(CC(C4)C2)C3)nc1 [Compound 27, 6-{[2-(Adamantan-1-yl)-2-oxoethyl]sulfanyl}-N,N-dimethylpyridine-3-carboxamide]
melting point: 63 to 65 °C

O=C(COCc1ccc(C(F)(F)F)nc1)C12CC3CC(CC(C3)C1)C2 [Compound 34, 1-(Adamantan-1-yl)-2-{[6-(trifluoromethyl)pyridin-3-yl]methoxy}ethan-1-one]
inhibition at 1 µM (human 11β-HSD1): 33% | melting point: 106 to 109 °C

ON=C(COCc1ccccn1)C12CC3CC(CC(C3)C1)C2 [Compound 35, N-[1-(Adamantan-1-yl)-2-(pyridin-2-ylmethoxy)ethylidene]hydroxylamine]
inhibition at 1 μM (in words) (human 11β-HSD1; 1 μM, HEK293/HSD11B1 cells): none of the oxime compound shows any significant inhibition

ON=C(COCc1cccnc1)C12CC3CC(CC(C3)C1)C2 [Compound 36, N-[1-(Adamantan-1-yl)-2-(pyridin-3-ylmethoxy)ethylidene]hydroxylamine]
inhibition at 1 μM (in words) (human 11β-HSD1; 1 μM, HEK293/HSD11B1 cells): none of the oxime compound shows any significant inhibition | melting point: 115 to 117 °C

O=C(CSCc1ccccn1)C12CC3CC(CC(C3)C1)C2 [Compound 37, 1-(Adamantan-1-yl)-2-[(pyridin-2-ylmethyl)sulfanyl]ethan-1-one]
melting point: 38 to 39 °C

O=C(CSCc1cccnc1)C12CC3CC(CC(C3)C1)C2 [Compound 38, 1-(Adamantan-1-yl)-2-[(pyridin-3-ylmethyl)sulfanyl]ethan-1-one]
melting point: 45 to 47 °C

O=C(C[S+]([O-])Cc1ccccn1)C12CC3CC(CC(C3)C1)C2 (stereo not drawn) [Compound 40, 1-(Adamantan-1-yl)-2-[(pyridin-2-ylmethyl)sulfinyl]ethan-1-one]
melting point: 87 to 88 °C | IC50 (mouse 11β-HSD1): 248 nM

O=C(CSCc1ccc(C(F)(F)F)nc1)C12CC3CC(CC(C3)C1)C2 [Compound 48, 1-(Adamantan-1-yl)-2-({[6-(trifluoromethyl)pyridin-3-yl]methyl}sulfanyl)ethan-1-one]
inhibition at 1 µM (human 11β-HSD1): 20% | melting point: 80 to 82 °C

O=C(CSCc1ccc(Cl)nc1)C12CC3CC(CC(C3)C1)C2 [Compound 49, 1-(Adamantan-1-yl)-2-{[(6-chloropyridin-3-yl)methyl]sulfanyl}ethan-1-one]
inhibition at 1 µM (human 11β-HSD1): 31% | melting point: 88 to 90 °C

O=C(CS(=O)(=O)Cc1ccc(C(F)(F)F)nc1)C12CC3CC(CC(C3)C1)C2 [Compound 52, 1-(Adamantan-1-yl)-2-({[6-(trifluoromethyl)pyridin-3-yl]methyl}sulfonyl)ethan-1-one]
inhibition at 1 µM (human 11β-HSD1): 54% | melting point: 87 to 89 °C

O=C(NCC(=O)C12CC3CC(CC(C3)C1)C2)c1ccccn1 [Compound 56, N-[2-(Adamantan-1-yl)-2-oxoethyl]pyridine-2-carboxamide]
melting point: 135 to 136 °C

Cc1cccc(C(=O)NCC(=O)C23CC4CC(CC(C4)C2)C3)n1 [Compound 57, N-[2-(Adamantan-1-yl)-2-oxoethyl]-6-methylpyridine-2-carboxamide]
melting point: 110 to 111 °C

O=C(NCC(=O)C12CC3CC(CC(C3)C1)C2)c1cccnc1 [Compound 58, N-[2-(Adamantan-1-yl)-2-oxoethyl]pyridine-3-carboxamide]
melting point: 114 to 115 °C

O=C(NCC(=O)C12CC3CC(CC(C3)C1)C2)c1ccncc1 [Compound 59, N-[2-(Adamantan-1-yl)-2-oxoethyl]pyridine-4-carboxamide]
melting point: 147 to 149 °C

O=C(Cc1ccccn1)NCC(=O)C12CC3CC(CC(C3)C1)C2 [Compound 60, N-[2-(Adamantan-1-yl)-2-oxoethyl]-2-(pyridin-2-yl)acetamide]
melting point: 137 to 139 °C

O=C(Cc1cccnc1)NCC(=O)C12CC3CC(CC(C3)C1)C2 [Compound 61, N-[2-(Adamantan-1-yl)-2-oxoethyl]-2-(pyridin-3-yl)acetamide]
melting point: 115 to 117 °C
